Test results reported in patent US12691056B2 (priority 2020, dated 2026).

Experiments:
[1] = cited from earlier work
[2] = test system: CYP3A4 and CYP2D6 enzymes; conditions: in vitro studies; cited from earlier work
[3] = test system: CYP1A1, CYP1A2, CYP2A6, CYP2B6, CYP2C8, CYP2C9, CYP2C19, or CYP2E1 enzymes; conditions: cited from earlier work
[4] = aripiprazole intramuscular depot formulation; cited from earlier work
[5] = Inter-Individual Variability (CV %)
[6] = final combined popPK model, Fixed

SMILES: O=C1CCc2ccc(OCCCCN3CCN(c4cccc(Cl)c4Cl)CC3)cc2N1 [aripiprazole, 7-[4-[4-(2,3-dichlorophenyl)-1-piperazinyl]butoxy]-3,4-dihydrocarbostyril]
- lower apparent clearance in CYP2D6 poor metabolizers (CYP2D6 PM subjects): approximately 50%
- IIV on Vc [5]: 2.18 (148%)
- IIV on deltoid IM Ka [5]: 0.237 (48.9%)
- IIV on gluteal IM Ka [5]: 0.359 (60.0%)
- IIV on oral Ka (Inter-Individual Variability (CV %), Fixed): 0.434 (65.9%)
- CL Apparent clearance for subjects who are not poor CYP2D6 metabolizers [6]: 3.71 Fixed L/hr
- CLpm Apparent clearance for subjects who are poor CYP2D6 metabolizers [6]: 1.88 Fixed Lhr
- IM Ka_BMI Effect of BMI on IH Ka: power for (BMI/28) [6]: −0.975 Fixed
- IM Ka_male Proportional shift of IM Ka for males [6]: 0.346 Fixed
- IMKa Gluteal IM 1st order absorption safe constant [6]: 0.000904 h⁻¹
- Q1 Inter-compartmental clearance 1 [6]: 0.591 Fixed L/hr
- Q2 Inter-compartmental clearance 2 [6]: 28.8 Fixed L/hr
- absolute oral bioavailability ([1]; tablet formulation): about 87%
- enzyme for N-dealkylation [2]: catalyzed by CYP3A4
- enzymes for dehydrogenation and hydroxylation [2]: CYP3A4 and CYP2D6 enzymes are responsible
- substrate of CYP1A1, CYP1A2, CYP2A6, CYP2B6, CYP2C8, CYP2C9, CYP2C19, or CYP2E1 enzymes [3]: not a substrate

SMILES: O=c1ccc2ccc(OCCCCN3CCN(c4cccc(Cl)c4Cl)CC3)cc2[nH]1 [dehydro-aripiprazole]
- share of the parent drug exposure in plasma [4]: about 29%
- share of aripiprazole AUC in plasma ([1]; at steady-state): about 40%
